Source: paper PMC6831736, “Highly Variable Pharmacokinetics of Tyramine in Humans and Polymorphisms in OCT1, CYP2D6, and MAO-A” (Frontiers in Pharmacology, 2019)
Like-named read-outs stand apart in the source and are kept apart here.

Experiments:
clinical = assay: clinical
Experimental: In this open-label pharmacokinetic/pharmacodynamic study, pharmacokinetics and effects of 400 mg oral tyramine were analysed in relation to MAO-A, CYP2D6, and OCT1 genotypes in 88 healthy volunteers. Eighty percent of the participants were unselected volunteers from Göttingen area in Germany; the remaining 20% were selected from an internal database to enrich the study sample with rare OCT1 or CYP2D6 variants. With widely accepted statistical criteria (type I error of 0.05 and type II error of 0.2), at least 10 subjects with genetically defined very low activity of OCT1 or CYP2D6 and a similar or higher number without deficiency should be sufficient to confirm a relevant 50% change in tyramine plasma AUC as a result of genetic variation. Because of the very diverse and not pharmacokinetic-based literature data on the functional effects of MAO-A polymorphisms, no power calculation could be performed with regard to MAO-A genotypes. However, a sample size of nearly a hundred individuals should be sufficient to find genotypes with a population frequency of at least 5%. All volunteers gave their written informed consent before participation in the study. The study was approved by the ethics committee of the University of Göttingen. It was registered at the German Clinical Trials Registry and the World Health Organization International Clinical Trials Registry Platform (DRKS00008915; https://www.drks.de/DRKS00008915).
Plasma and urine concentrations of tyramine and 4-HPAA were analysed by HPLC with tandem mass spectrometry using tyramine-d4 (Santa Cruz Biotechnology, Inc., Dallas, TX, USA) as internal standard. GR 49336 (5-[[(methylamino)sulfonyl]methyl]-1H-indole-3-acetic acid; Santa Cruz Biotechnology, Inc.) was used as internal standard for 4-HPAA. The analytical standards for tyramine were obtained from Fluka (Morristown, NJ, USA) and for 4-HPAA from Sigma-Aldrich (Darmstadt, Germany). The limit of detection for tyramine was 0.1 ng/ml in plasma and 10 ng/ml in urine; for 4-HPAA, it was 5 ng/ml in plasma and 0.5 µg/ml in urine. The limit of quantification for tyramine was 0.25 ng/ml in plasma and 15 ng/ml in urine; for 4-HPAA, it was 15 ng/ml in plasma and 1.5 µg/ml in urine.
200 µl of plasma were precipitated in 1.5 ml Eppendorf tubes with 400 µl acetonitrile/methanol (9:1, v:v), including the internal standards. After 10 min on ice, tubes were centrifuged for 30 min at 13,000 rpm, and 300 µl of the supernatant were transferred to a microtiter plate. The supernatant was evaporated using nitrogen and re-dissolved in 0.1% formic acid. 10 µl were injected into the HPLC system. Chromatography was performed using a Shimadzu Nexera system with an API 4000 detector. Separation for analysis of tyramine and methyltyramine was performed at 40°C on a Brownlee SPP RP-Amide 100 x 4.6 mm, 2.7 µm particle size, column using water with 0.1% (v/v) formic acid, 2.57% acetonitrile, and 0.43% methanol as eluent. Detection (positive mode) of tyramine was based on the masses 139.1/121.1 and for tyramine-d4 on 142.0/125.0. Calibration range was 0.5 to 200 µg/l with coefficients of variation of 4.6%, 2.8%, and 2.6% at 2, 20, and 150 µg/l, respectively. Analysis of 4-HPAA was performed on the same system, using 0.1% formic acid, 17.14% acetonitrile, and 2.86% methanol as eluent and detection in the negative mode based on the masses 151.0/107.2 for 4-HPAA and 281.2/142.1 for the internal standard. Calibration range was between 0.03 and 20 mg/l and coefficients of variation were 4.7%, 4.2%, and 3.7% at 1, 5, and 15 mg/l.
Pharmacokinetic parameters were calculated by non-compartmental analysis using Phoenix 64 WinNonlin version 6 (Certara USA, Inc., Princeton NJ, USA). AUCinf of tyramine was calculated from time of dosing using the linear/log trapezoidal rule, and extrapolated to inﬁnity based on the last predicted concentration and using the terminal elimination rate constant (lambda z).

healthy volunteers [1] = settings: in vivo
Experimental: (§1) To avoid interference by dietary tyramine, food and drink (including alcohol) consumption was prohibited from the evening before the study day until the last blood and urine sampling, except for water at any time and bread with butter 3 h before and 3 h after tyramine administration. A medical examination and electrocardiogram measurement were conducted 3 h prior to tyramine administration. Blood samples were drawn 3 h before and at the following times after tyramine intake: 15, 30, and 45 min as well as 1, 1.5, 2, 2.5, 3, 4, and 6 h. Urine samples were taken from 3 h to 10 min before tyramine administration as well as from 0 to 3 h and from 3 to 6 h after. Blood samples were centrifuged (10 min, 4°C, 4,000 rpm) and plasma and urine samples were stored at −20°C until analysis. Blood pressure and heart rate were measured 3 h, 35 min, and 10 min before tyramine administration, and subsequently in 15 min intervals until 6 h after. In a subgroup of eight participants, blood pressure was continuously monitored based on an analysis of pulse pressure curves using the SOMNOtouch™ NIPB non-invase system (SOMNOmedics GmbH, Randersacker, Germany). An orthostatic blood pressure test was performed 10 min before as well as 30 min and 1.5 h after tyramine intake. Pupillometry was performed 35 min prior to, and 1, 2, and 6 h after tyramine administration. Participants were asked to report on symptoms possibly related to tyramine (headache, fatigue, sleepiness, visual or hearing impairments, restlessness, nausea, dizziness, dry mouth, tremor, sensation of cold, and heart palpitation) using visual analogue scales 3 h before and 1, 3, and 6 h after tyramine intake.
(§2) The primary endpoint was the AUC of tyramine in plasma. Secondary endpoints were the other pharmacokinetic parameters of tyramine and its metabolite 4-HPAA, as well as heart rate, blood pressure, pupil size effects, and possible adverse events (headache, fatigue, visual or hearing impairments, restlessness, nausea, dizziness, dry mouth, tremor, hypothermia, heart palpitations). In addition, the cumulative amounts of tyramine and 4-HPAA excreted in urine were measured over time periods of 3 h before (baseline) and 6 h after application.

healthy volunteers [2] = assay: Blood pressure and heart rate effects after 400 mg oral tyramine; assay type: in vivo, human
Source text: Purity was confirmed by HPLC.

[3] = system: organic cation transporter 1 (OCT1, or SLC22A1); set-up: method as in Breidert et al., 1998; settings: ref Breidert et al., 1998; cited from earlier work
[4] = set-up: method as in earlier work; settings: fasting state; upwards; ref VanDenBerg et al., 2003; Di Stefano et al., 2013; Gillman, 2018; cited from earlier work
healthy volunteers [5] = assay: Adverse events, adverse symptoms (visual analogue scales) and pupillometry after 400 mg oral tyramine
Experimental: as §1, §2

[6] = human, in vivo, po, 400 mg, t max
[7] = human, in vivo, po, 400 mg, tmax, range

## O=C(O)Cc1ccc(O)cc1 [4-HPAA, 4-hydroxyphenylacetic acid]
clinical; human, in vivo
  Baseline recovery in the urine cumulated for 3 h prior to tyramine administration: 2.65 (0.67–9.05) mg
  concentration at -3 h: 70 ng/mL
clinical; human, in vivo, -3 h
  participants with baseline plasma concentration below the limit of quantification: 84%
clinical; human, in vivo, po
  dose recovered in urine in form of 4-HPAA: 76.8%
clinical; human, in vivo, po, 400 mg
  CL renal: 240 mL/min
  Cmax: 9040 ng/mL
  half-life: 1.22 h
  variation of 4-HPAA systemic exposure (plasma AUC): up to 3 fold
clinical; human, in vivo, po, 400 mg, AUC inf
  AUC(0-inf): 21600 ng·h/mL
clinical; [6]
  Tmax: 1.47 h
clinical; [7]
  Tmax: 0.483 to 2.5 h
Healthy volunteers [1]
  correlation of systemic concentration with dizziness: positively
  correlation of systemic concentration with dry mouth: weakly
  correlation of systemic concentration with headache: positively
  correlation of systemic concentration with heart palpitation: positively

## CNCCc1ccc(O)cc1 [N-methyltyramine]
clinical; 400 mg oral tyramine, below the limit of detection
  Plasma and urine concentrations: < 1 ng/mL

## NCCc1ccc(O)cc1 [Tyramine, tyramine]
clinical; female, human, in vivo, po, 400 mg
  AUC(0-inf): 0.19 µM·h
clinical; female, human, in vivo, po, 400 mg, Mean plasma AUCinf
  AUC(0-inf): 0.528 µM·h
clinical; human, in vivo
  Baseline recovery in the urine cumulated for 3 h prior to tyramine administration: 0.055 (0.007–0.222) mg
  effect of MAO-A genotypes on tyramine pharmacokinetics or its metabolism to 4-HPAA: no significant effects
  effect of polymorphisms in OCT1 and CYP2D6 on tyramine pharmacokinetics or pharmacodynamics: did not significantly affect
clinical; human, in vivo, -3 h
  Baseline plasma concentration: 0.39 (0.25 & 0.53) ng/ml
  participants with baseline plasma concentration below the limit of quantification: 98%
clinical; human, in vivo, po
  bioavailability: < 1%
clinical; human, in vivo, po, 400 mg
  AUC(0-inf): 62.3 ng·h/mL
  CL renal: 260 mL/min
  Cmax: 87 ng/mL
  half-life: 0.917 h
clinical; [6]
  Tmax: 0.767 h
clinical; [7]
  Tmax: 0.217 to 2 h
Healthy volunteers [2]; 400 mg oral tyramine
  correlation of rise in systolic blood pressure with systemic tyramine concentration: correlated strongly
  participants with blood pressure peaks by >40 mmHg above baseline: less than 10%
  participants with increases in systolic blood pressure less than 40 mmHg: 90%
  tyramine concentrations at which blood pressure peaks by >40 mmHg above baseline were observed: > 60 µg/L
  volunteers with systolic blood pressure increased by more than 10 mmHg: 71%
Healthy volunteers [2]; concentration-effect analyses
  tyramine plasma concentration at which diastolic blood pressure increased: higher than 100 µg/l
Healthy volunteers [2]; concentration-effect analyses, and above
  tyramine plasma concentration at which systolic blood pressure rises: ≥ 60 µg/L
Healthy volunteers [2]; one participant, much delayed
  time of blood pressure reaction after tyramine administration: 90 min
[3]
  OCT1 substrate affinity: substrate with nanomolar affinity
[4]
  oral tyramine dose at which the pressor response occurs: ≥ 200 mg
Healthy volunteers [5]; 400 mg oral tyramine, 88 healthy volunteers
  serious adverse events: no serious adverse events
Healthy volunteers [5]; repeated pupillometric analyses
  pupil size and pupil reaction to light before and after tyramine administration: no difference
Healthy volunteers [5]; visual analogue scales, two-tailed, p < 0.001
  correlation of systemic concentration with heart palpitation: Positive correlations
Healthy volunteers [5]; visual analogue scales, two-tailed, p = 0.02
  correlation of systemic concentration with inner restlessness: Positive correlations
